In patent US20100249408A1, “USE OF NOVEL COMPOUND HAVING AFFINITY FOR AMYLOID, AND PROCESS FOR PRODUCTION OF THE SAME” (NIHON MEDI-PHYSICS CO., LTD., priority 2007, published 2010):
Like-named read-outs stand apart in the source and are kept apart here.

Legend:
[1] = target: intracerebral amyloid (aggregated Aβ1-40 injected into amygdaloid nucleus) (Homo sapiens, UniProt P05067); details: rat with Aβ1-40 amyloid suspension in one amygdaloid nucleus, tail vein, brain removed 60 minutes after injection
Protocol: The following experiment was carried out in order to examine whether amyloid in brain can be imaged by the compound of the present invention.
The rats were examined 1 day after the injection of the amyloid suspension and the phosphate buffered physiological saline solution (pH 7.4).
(4) Brain was removed 60 minutes after the injection to prepare a brain slice of 10 μm in thickness with a microtome (type: CM3050S, manufactured by LEICA).

[2] = Transferability into brain and clearance (Example I-16, Comparative Example I-7); format: in vivo, male Wistar rats; details: rats, intravenous injection, two animals
Protocol: Using Compound 6, a time course change of radioactive accumulation in brain of male Wistar rats (7-week old) was measured.
Also, radioactivity (hereinafter referred to as B in this Example) of 0.05 mL of a 1000-fold diluted solution of the injected solution was measured in the same manner as above. Using these measurement results, radioactive accumulation per unit weight of brain (% ID/g) at the respective time points was calculated in accordance with the following formula (3).

insulin amyloid = insulin amyloid (Homo sapiens, UniProt P01308); details: insulin amyloid 0.8 μg/mL, compound 0.2-20.2 pM, 22° C., 3 hours (FIG. 16)
Excerpt: (§1) Affinity of the present compounds with amyloid was examined by the following in vitro binding tests.

[3] = target: β2-m-amyloid (aggregated β2-microglobulin) (Homo sapiens, UniProt P61769); details: β2-m-amyloid 0.8 μg/mL, compound 0.2-20.2 pM, 22° C., 3 hours (FIG. 16)
Excerpt: as §1

amylin amyloid = amylin amyloid (Homo sapiens, UniProt P10997); details: amylin amyloid 0.8 μg/mL, compound 0.2-20.2 pM, 22° C., 3 hours (FIG. 16)
Excerpt: as §1

[4] = SD rat; for Radioactive distribution per unit weight, Adrenal gland, Average / Radioactive distribution per unit weight, Blood, Average / Radioactive distribution per unit weight, Bone, Average / Radioactive distribution per unit weight, Brain, Average / Radioactive distribution per unit weight, Heart, Average / Radioactive distribution per unit weight, Kidney, Average / Radioactive distribution per unit weight, Large intestine, Average / Radioactive distribution per unit weight, Liver, Average / Radioactive distribution per unit weight, Lung, Average / Radioactive distribution per unit weight, Marrow, Average / Radioactive distribution per unit weight, Muscle, Average / Radioactive distribution per unit weight, Pancreas, Average / Radioactive distribution per unit weight, Small intestine, Average / Radioactive distribution per unit weight, Spleen, Average / Radioactive distribution per unit weight, Stomach, Average: tail vein
Protocol: A solution of Compound 6 in diethylether was diluted with a 10 mg/mL ascorbic acid-containing physiological saline solution and adjusted to 8-12 MBq/mL in radioactive concentration. 0.2 mL each of the prepared sample solution was administered under non-anesthesia into the tail vein of the above rat. The rats were sacrificed by bleeding from abdominal artery, and each organ shown in Table 11 was removed 5, 30, 60 and 180 minutes after the administration. […] Also, radioactivity of the whole body of the rat after removal of the organs (hereinafter referred to as rest of the whole body) was measured. Using these measurement results, radioactive distribution per unit weight of each organ (% ID/g) at the respective time points was calculated in accordance with the following formula (6).
Three animals were used for the experiment at the respective time points.
[formula] • R^T: Radioactivity of target organ (cpm) • R^S: Sum of radioactivity of all the organs (cpm) • R^R: Radioactivity of the rest of the whole body (cpm) • M^T: Mass of target organ (g)

amylin amyloid, sequence (P10997 34-70 limits assumed): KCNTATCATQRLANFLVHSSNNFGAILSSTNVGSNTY
intracerebral amyloid (aggregated Aβ1-40 injected into amygdaloid nucleus), sequence (P05067 672-711): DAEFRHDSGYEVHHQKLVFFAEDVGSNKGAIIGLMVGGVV
β2-m-amyloid (aggregated β2-microglobulin), sequence (P61769 21-119): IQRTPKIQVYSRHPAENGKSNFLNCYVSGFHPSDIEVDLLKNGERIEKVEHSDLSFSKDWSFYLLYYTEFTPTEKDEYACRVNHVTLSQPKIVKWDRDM
insulin amyloid, sequence (P01308 25-54 limits assumed): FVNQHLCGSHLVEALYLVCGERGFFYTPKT
insulin amyloid, sequence (P01308 90-110 limits assumed): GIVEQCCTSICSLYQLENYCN

Oc1ccc(-c2cn3cc([123I])ccc3n2)cc1 [Compound 6, [^123I]-2-(4′-hydroxyphenyl)-6-iodoimidazo[1,2-a]pyridine]
Accumulation of radioactivity at intracerebral amyloid (autoradiogram) [1]: accumulating on intracerebral amyloid | Radioactive accumulation in brain per unit weight ([2]; after 2 min.): 0.96 % ID/g | Radioactive accumulation in brain per unit weight ([2]; after 5 min.): 0.69 % ID/g | Radioactive accumulation in brain per unit weight ([2]; after 30 min.): 0.16 % ID/g | Radioactive accumulation in brain per unit weight ([2]; after 60 min.): 0.04 % ID/g | Radioactive count on glass fiber filter versus group without addition of amyloid (insulin amyloid): radioactivity was all high compared to the group without addition of amyloid suspension | Radioactive count on glass fiber filter versus group without addition of amyloid [3]: radioactivity was all high compared to the group without addition of amyloid suspension | Radioactive count on glass fiber filter versus group without addition of amyloid (amylin amyloid): radioactivity was all high compared to the group without addition of amyloid suspension | Ratio (% ID/g at 5 minutes after the administration)/(% ID/g at 180 minutes after the administration) ([4]; bone): 4 | Ratio (% ID/g at 5 minutes after the administration)/(% ID/g at 180 minutes after the administration) ([4]; brain): 122 | Ratio (% ID/g at 5 minutes after the administration)/(% ID/g at 180 minutes after the administration) ([4]; heart): 13 | Ratio (% ID/g at 5 minutes after the administration)/(% ID/g at 180 minutes after the administration) ([4]; lung): 7 | Ratio (% ID/g at 5 minutes after the administration)/(% ID/g at 180 minutes after the administration) ([4]; pancreas): 14 | Radioactive distribution per unit weight, Adrenal gland, Average ([4]; 5 min. after administration): 4.648 % ID/g | Radioactive distribution per unit weight, Adrenal gland, Average ([4]; 30 min. after administration): 0.642 % ID/g | Radioactive distribution per unit weight, Adrenal gland, Average ([4]; 60 min. after administration): 0.260 % ID/g | Radioactive distribution per unit weight, Adrenal gland, Average ([4]; 180 min. after administration): 0.020 % ID/g | Radioactive distribution per unit weight, Blood, Average ([4]; 5 min. after administration): 0.285 % ID/g | Radioactive distribution per unit weight, Blood, Average ([4]; 30 min. after administration): 0.174 % ID/g | Radioactive distribution per unit weight, Blood, Average ([4]; 60 min. after administration): 0.122 % ID/g | Radioactive distribution per unit weight, Blood, Average ([4]; 180 min. after administration): 0.109 % ID/g | Radioactive distribution per unit weight, Bone, Average ([4]; 5 min. after administration): 0.222 % ID/g | Radioactive distribution per unit weight, Bone, Average ([4]; 30 min. after administration): 0.088 % ID/g | Radioactive distribution per unit weight, Bone, Average ([4]; 60 min. after administration): 0.058 % ID/g | Radioactive distribution per unit weight, Bone, Average ([4]; 180 min. after administration): 0.053 % ID/g | Radioactive distribution per unit weight, Brain, Average ([4]; 5 min. after administration): 0.721 % ID/g | Radioactive distribution per unit weight, Brain, Average ([4]; 30 min. after administration): 0.124 % ID/g | Radioactive distribution per unit weight, Brain, Average ([4]; 60 min. after administration): 0.030 % ID/g | Radioactive distribution per unit weight, Brain, Average ([4]; 180 min. after administration): 0.006 % ID/g | Radioactive distribution per unit weight, Heart, Average ([4]; 5 min. after administration): 0.619 % ID/g | Radioactive distribution per unit weight, Heart, Average ([4]; 30 min. after administration): 0.147 % ID/g | Radioactive distribution per unit weight, Heart, Average ([4]; 60 min. after administration): 0.063 % ID/g | Radioactive distribution per unit weight, Heart, Average ([4]; 180 min. after administration): 0.047 % ID/g | Radioactive distribution per unit weight, Kidney, Average ([4]; 5 min. after administration): 0.999 % ID/g | Radioactive distribution per unit weight, Kidney, Average ([4]; 30 min. after administration): 0.540 % ID/g | Radioactive distribution per unit weight, Kidney, Average ([4]; 60 min. after administration): 0.244 % ID/g | Radioactive distribution per unit weight, Kidney, Average ([4]; 180 min. after administration): 0.108 % ID/g | Radioactive distribution per unit weight, Large intestine, Average ([4]; 5 min. after administration): 0.116 % ID/g | Radioactive distribution per unit weight, Large intestine, Average ([4]; 30 min. after administration): 0.070 % ID/g | Radioactive distribution per unit weight, Large intestine, Average ([4]; 60 min. after administration): 0.066 % ID/g | Radioactive distribution per unit weight, Large intestine, Average ([4]; 180 min. after administration): 7.296 % ID/g | Radioactive distribution per unit weight, Liver, Average ([4]; 5 min. after administration): 2.008 % ID/g | Radioactive distribution per unit weight, Liver, Average ([4]; 30 min. after administration): 0.509 % ID/g | Radioactive distribution per unit weight, Liver, Average ([4]; 60 min. after administration): 0.181 % ID/g | Radioactive distribution per unit weight, Liver, Average ([4]; 180 min. after administration): 0.083 % ID/g | Radioactive distribution per unit weight, Lung, Average ([4]; 5 min. after administration): 0.657 % ID/g | Radioactive distribution per unit weight, Lung, Average ([4]; 30 min. after administration): 0.209 % ID/g | Radioactive distribution per unit weight, Lung, Average ([4]; 60 min. after administration): 0.120 % ID/g | Radioactive distribution per unit weight, Lung, Average ([4]; 180 min. after administration): 0.089 % ID/g | Radioactive distribution per unit weight, Marrow, Average ([4]; 5 min. after administration): 0.713 % ID/g | Radioactive distribution per unit weight, Marrow, Average ([4]; 30 min. after administration): 0.194 % ID/g | Radioactive distribution per unit weight, Marrow, Average ([4]; 60 min. after administration): 0.000 % ID/g | Radioactive distribution per unit weight, Marrow, Average ([4]; 180 min. after administration): 0.030 % ID/g | Radioactive distribution per unit weight, Muscle, Average ([4]; 5 min. after administration): 0.381 % ID/g | Radioactive distribution per unit weight, Muscle, Average ([4]; 30 min. after administration): 0.078 % ID/g | Radioactive distribution per unit weight, Muscle, Average ([4]; 60 min. after administration): 0.034 % ID/g | Radioactive distribution per unit weight, Muscle, Average ([4]; 180 min. after administration): 0.022 % ID/g | Radioactive distribution per unit weight, Pancreas, Average ([4]; 5 min. after administration): 0.846 % ID/g | Radioactive distribution per unit weight, Pancreas, Average ([4]; 30 min. after administration): 0.207 % ID/g | Radioactive distribution per unit weight, Pancreas, Average ([4]; 60 min. after administration): 0.084 % ID/g | Radioactive distribution per unit weight, Pancreas, Average ([4]; 180 min. after administration): 0.060 % ID/g | Radioactive distribution per unit weight, Small intestine, Average ([4]; 5 min. after administration): 1.078 % ID/g | Radioactive distribution per unit weight, Small intestine, Average ([4]; 30 min. after administration): 6.335 % ID/g | Radioactive distribution per unit weight, Small intestine, Average ([4]; 60 min. after administration): 8.207 % ID/g | Radioactive distribution per unit weight, Small intestine, Average ([4]; 180 min. after administration): 1.408 % ID/g | Radioactive distribution per unit weight, Spleen, Average ([4]; 5 min. after administration): 0.462 % ID/g | Radioactive distribution per unit weight, Spleen, Average ([4]; 30 min. after administration): 0.140 % ID/g | Radioactive distribution per unit weight, Spleen, Average ([4]; 60 min. after administration): 0.075 % ID/g | Radioactive distribution per unit weight, Spleen, Average ([4]; 180 min. after administration): 0.072 % ID/g | Radioactive distribution per unit weight, Stomach, Average ([4]; 5 min. after administration): 0.360 % ID/g | Radioactive distribution per unit weight, Stomach, Average ([4]; 30 min. after administration): 1.025 % ID/g | Radioactive distribution per unit weight, Stomach, Average ([4]; 60 min. after administration): 1.043 % ID/g | Radioactive distribution per unit weight, Stomach, Average ([4]; 180 min. after administration): 1.081 % ID/g
